Data: patent US11897931B2, “MANP analogues” (Mayo Foundation for Medical Education and Research, priority 2016, dated 2024)
Like-named read-outs stand apart in the source and are kept apart here. Bridges are numbered along the chain shown (N, C = ends). Where no end group is shown, it is not given here. [ ]: non-standard residue; d: D form.

Columns and labels:
[1] = test system: Spontaneously hypertensive rats (SHRs); experiment: Acute IV MANP in spontaneously hypertensive rats: BP, plasma and urinary cGMP, natriuresis; type: in vivo, rat; conditions: acute IV administration
Protocol: FIGS. 2A-2E are a series of graphs plotting the effect of MANP, administered intravenously at the indicated doses, on mean arterial pressure (FIG. 2A), cGMP levels in plasma (FIG. 2B) and urine (FIG. 2C), distal tubule sodium reabsorption (FIG. 2D), and urinary sodium excretion (FIG. 2E) in spontaneously hypertensive rats.
Spontaneously hypertensive rats (SHRs) were injected with intravenous (IV) MANP or vehicle, and BP, plasma and urinary cGMP, and natriuretic effects were determined.

[2] = test system: normal dogs; conditions: cited from earlier work
[3] = target: T1, pGC-A (Homo sapiens, UniProt P16066); experiment: cGMP generation in HEK293 cells overexpressing pGC-A; type: cell-based
T1 construct: host or cells: HEK293
T1 sequence (P16066 33-1061): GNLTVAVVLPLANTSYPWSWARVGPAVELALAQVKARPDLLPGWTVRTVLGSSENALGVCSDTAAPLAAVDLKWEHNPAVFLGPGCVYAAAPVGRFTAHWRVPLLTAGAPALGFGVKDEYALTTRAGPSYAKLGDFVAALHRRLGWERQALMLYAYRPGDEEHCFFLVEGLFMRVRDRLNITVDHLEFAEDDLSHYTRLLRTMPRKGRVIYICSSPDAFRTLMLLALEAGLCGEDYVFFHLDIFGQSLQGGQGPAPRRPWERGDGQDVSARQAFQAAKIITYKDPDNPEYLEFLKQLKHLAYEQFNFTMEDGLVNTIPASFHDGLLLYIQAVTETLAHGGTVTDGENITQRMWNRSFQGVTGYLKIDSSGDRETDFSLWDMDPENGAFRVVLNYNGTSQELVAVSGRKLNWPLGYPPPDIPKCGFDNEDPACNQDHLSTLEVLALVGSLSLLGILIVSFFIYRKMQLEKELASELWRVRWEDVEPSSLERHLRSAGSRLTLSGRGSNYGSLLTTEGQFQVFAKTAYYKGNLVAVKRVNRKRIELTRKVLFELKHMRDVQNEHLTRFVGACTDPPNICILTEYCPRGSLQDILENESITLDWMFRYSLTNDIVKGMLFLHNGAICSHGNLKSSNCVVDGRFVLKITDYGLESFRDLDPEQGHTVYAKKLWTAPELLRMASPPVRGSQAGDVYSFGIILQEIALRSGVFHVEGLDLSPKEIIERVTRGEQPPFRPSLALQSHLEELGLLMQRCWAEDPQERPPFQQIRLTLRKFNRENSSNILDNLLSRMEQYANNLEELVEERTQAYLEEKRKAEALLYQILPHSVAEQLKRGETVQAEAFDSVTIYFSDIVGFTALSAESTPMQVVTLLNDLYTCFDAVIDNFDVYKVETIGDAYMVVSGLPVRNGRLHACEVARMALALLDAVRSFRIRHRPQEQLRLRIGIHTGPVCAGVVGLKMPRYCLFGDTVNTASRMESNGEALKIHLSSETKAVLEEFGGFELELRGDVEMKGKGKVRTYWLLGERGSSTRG
Protocol: For in vitro studies, five MANP variants were generated that contained substitutions within the N-terminal region. HEK293 cells overexpressing pGC-A were stimulated with MANP or the five variants (10^−8 M), and intracellular cGMP generation was measured.
(§1) Additional in vitro experiments were conducted using an MANP variant having a tryptophan substitution for the leucine at position 2 of MANP (SWLRRSSCFGGRMDRI GAQSGLGCNSFRYRITA REDKQGWA; SEQ ID NO:15). Human pGC-A and pGC-B cDNA clones were purchased from Origene (Rockville, Md.). HEK293 cells were stably transfected with pGC-A or pGC-B cDNA using LIPOFECTAMINE® (Invitrogen; Grand Island, N.Y.). Transfected cells were maintained in Dulbecco's modified Eagle's medium supplemented with 10% fetal bovine serum, 100 U/ml penicillin, 100 […], and 250 ug/ml G418, and were plated in 6-well plates. pGC-A-transfected cells were treated with MANP or MANP2W, while pGC-B-transfected cells were treated with CNP or MANP2W. Cells were incubated in Hank's balanced salt solution (Invitrogen; Carlsbad, Calif.) containing 20 mmol/LN42-hydroxyethyllpiperazine-N′[2-ethanesulfonic acid], 0.1% bovine serum albumin, and 0.5 mmol/L 3-isobutyl-1-methylzanthine (Sigma; St. Louis, Mo.). Treated cells received 10^−6 M, 10^−8 M, or 10^−10 M of MANP, CNP, or MANP2W peptide for 10 minutes. […]

[4] = test system: normal canine; experiment: In vivo MANP18 infusion study in a normal canine; conditions: normal dog
Protocol: FIGS. 5A-5G are graphs plotting the effect of MANP18 on mean arterial pressure (MAP; FIG. 5A), heart rate (FIG. 5B), pulmonary wedge capillary pressure (PWCP; FIG. 5C), cardiac output (FIG. 5D), renal blood flow (FIG. 5E), urine output (UV; FIG. 5F), and urinary sodium excretion (UNaV; FIG. 5G) in a normal dog. After a baseline (BL) clearance, MANP18 was infused with saline for a total of 45 minutes, which included a 15-minute lead-in period followed by a 30-minute clearance. After the peptide infusion was discontinued, and four, 30-minute clearances were performed [washout (Wo), recovery 1 (Rec1), recovery 2 (Rec2), and recovery 3 (Rec3)].
FIGS. 6A-6G are graphs plotting the effect of MANP18 on plasma cGMP levels (FIG. 6A), urinary cGMP excretion (FIG. 6B), plasma ANP levels (FIG. 6C), urinary ANP excretion (FIG. 6D), plasma aldosterone levels (FIG. 6E), plasma renin activity (PRA; FIG. 6F), and plasma angiotensin II levels (ANGII; FIG. 6G) in a normal dog. Experiments were conducted as described for FIGS. 5A-5G).
In vivo infusion studies were conducted using MANP18 in a normal canine. The night before the study, the dog was fasted. On the day of the experiment, the dog was anesthetized with pentobarbital sodium (15 mg/kg IV), intubated, and mechanically ventilated with supplemental oxygen (Harvard Respirator; Amersham, Mass.) at 12 cycles/minute. The femoral artery was cannulated for MAP monitoring and blood sampling, and the femoral vein was cannulated for saline infusion. Through a left lateral flank incision, the left kidney was exposed and the ureter was cannulated for urine sampling. Supplemental nonhypotensive doses of pentobarbital were administered as needed during the study. After 60 minutes of equilibrium, a baseline clearance was performed. All clearances consisted of urine collection over 30 minutes. Arterial blood sampling and hemodynamic measurements were measured midway through each clearance. After the baseline clearance, MANP18 was infused with saline at a dose of 33 pmol peptide/kg/min. The peptide was infused for a total of 45 minutes, which included a 15-minute lead-in period followed by a 30-minute clearance. The peptide infusion was then discontinued, and four 30-minute clearances were performed (washout, recovery 1, recovery 2, and recovery 3).

[5] = target: T2, pGC-B (Homo sapiens, UniProt P20594); experiment: cGMP generation in HEK293 cells overexpressing pGC-B; type: cell-based; conditions: 10^−6 M, 10^−8 M, or 10^−10 M peptide for 10 minutes, FIG. 7B
T2 construct: host or cells: HEK293
T2 sequence (P20594 23-1047): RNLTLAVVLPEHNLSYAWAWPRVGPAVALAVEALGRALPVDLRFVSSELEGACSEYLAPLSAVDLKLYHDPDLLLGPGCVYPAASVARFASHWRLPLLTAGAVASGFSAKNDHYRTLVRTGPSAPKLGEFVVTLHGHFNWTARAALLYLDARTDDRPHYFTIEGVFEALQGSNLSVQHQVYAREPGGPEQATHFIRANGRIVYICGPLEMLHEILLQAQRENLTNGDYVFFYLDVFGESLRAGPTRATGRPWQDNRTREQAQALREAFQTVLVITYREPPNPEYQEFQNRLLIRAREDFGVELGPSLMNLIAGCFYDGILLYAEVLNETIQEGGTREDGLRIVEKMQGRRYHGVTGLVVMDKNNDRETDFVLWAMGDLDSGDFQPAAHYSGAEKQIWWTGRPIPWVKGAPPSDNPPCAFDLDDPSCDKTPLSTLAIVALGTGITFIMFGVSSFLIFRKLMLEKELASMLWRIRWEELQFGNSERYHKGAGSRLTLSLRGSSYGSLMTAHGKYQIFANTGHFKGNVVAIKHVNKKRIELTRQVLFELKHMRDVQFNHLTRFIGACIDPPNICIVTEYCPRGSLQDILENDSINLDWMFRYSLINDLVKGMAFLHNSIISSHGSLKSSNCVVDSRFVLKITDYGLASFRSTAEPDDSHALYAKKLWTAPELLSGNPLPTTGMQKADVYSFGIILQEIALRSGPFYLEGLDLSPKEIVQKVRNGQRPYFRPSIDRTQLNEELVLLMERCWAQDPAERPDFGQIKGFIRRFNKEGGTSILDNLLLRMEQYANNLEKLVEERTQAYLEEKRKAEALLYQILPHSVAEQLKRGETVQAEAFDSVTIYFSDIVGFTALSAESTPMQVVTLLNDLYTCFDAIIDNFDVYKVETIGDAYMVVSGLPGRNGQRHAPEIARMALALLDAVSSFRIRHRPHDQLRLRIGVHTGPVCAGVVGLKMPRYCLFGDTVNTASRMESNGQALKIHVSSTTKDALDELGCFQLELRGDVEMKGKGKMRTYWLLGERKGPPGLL
Protocol: as §1, with “minutes. After treatment, the cells were lysed in 300 ul 6% ice cold TCA and sonicated for 10 minutes, and the cell lysates were then centrifuged at 4° C., 12,000 g for 10 minutes.” for “minutes.”

[6] = infusion of a high dose, compared to high dose of ANP

Substance: SLRRSSCFGGRMDRIGAQSGLGCNSFRYRITAREDKQGWA (listed as Homo sapiens) [MANP]
- BP (mean arterial pressure) ([1]; FIG. 2A): reduced BP
- plasma cGMP generation ([1]; FIG. 2B): increased
- urinary cGMP generation ([1]; FIG. 2C): increased
- natriuresis (distal tubule sodium reabsorption, urinary sodium excretion) ([1]; FIGS. 2D and 2E): induced natriuresis
- diuretic and natriuretic effects compared with ANP [2]: greater diuretic and natriuretic effects than ANP
- glomerular filtration rate (GFR) [2, 6]: increased GFR
- mean arterial pressure (MAP) [2, 6]: decreased MAP
- glomerular filtration rate (GFR) ([2]; infusion of a low dose): No change
- mean arterial pressure (MAP) ([2]; infusion of a low dose): No change
- effect on renal blood flow compared with ANP ([2]; low dose): greater effect than low dose ANP

Substance: SLRRSSDformCFGGRMDRIGAQSGLGCNSFRYRITAREDKQGWA (SLRRS[dS]CFGGRMDRIGAQSGLGCNSFRYRITAREDKQGWA; disulfide 7-23 (inferred)) [MANP18, MANP with D-serine at the sixth position]
- Potency vs. MANP ([3]; intracellular cGMP generation, peptide 10^−8 M, HEK293 overexpressing pGC-A): =
- blood pressure (mean arterial pressure) ([4]; 33 pmol peptide/kg/min infused 45 minutes, FIG. 5A): blood pressure lowering
- cardiac output ([4]; 33 pmol peptide/kg/min infused 45 minutes, FIG. 5D): cardiac output enhancing
- natriuretic action (urinary sodium excretion) ([4]; 33 pmol peptide/kg/min infused 45 minutes, FIG. 5G): natriuretic actions
- plasma aldosterone levels ([4]; 33 pmol peptide/kg/min, FIG. 6E): temporarily depressed
- plasma renin activity (PRA) ([4]; 33 pmol peptide/kg/min, FIG. 6F): temporarily depressed
- plasma angiotensin II levels (ANGII) ([4]; 33 pmol peptide/kg/min, FIG. 6G): temporarily depressed
- cGMP (plasma cGMP levels, urinary cGMP excretion) ([4]; 33 pmol peptide/kg/min, FIGS. 6A and 6B): activated cGMP
- ANP levels (plasma ANP, urinary ANP excretion) ([4]; 33 pmol peptide/kg/min, FIGS. 6C and 6D): temporarily increased

Substance: SLRRSSCFGGRMDRIGAQSGLGCNSFRY (listed as Homo sapiens) [ANP, endogenous human mature atrial natriuretic peptide]
- glomerular filtration rate (GFR) ([2]; infusion of a low dose): No change
- mean arterial pressure (MAP) ([2]; infusion of a low dose): No change

Substance: SWLRRSSCFGGRMDRI GAQSGLGCNSFRYRITA REDKQGWA (SWLRRSSCFGGRMDRIGAQSGLGCNSFRYRITAREDKQGWA) [MANP2W, MANP variant having a tryptophan substitution for the leucine at position 2 of MANP]
- pGC-A activation (cGMP generation) ([3]; 10^−6 M, 10^−8 M, or 10^−10 M peptide for 10 minutes, FIG. 7A): selectively activated pGC-A
- pGC-B activation (cGMP generation) [5]: did not activate pGC-B
